Test results from PMC6433934, “Preclinical Evaluation of Bispecific Adaptor Molecule Controlled Folate Receptor CAR-T Cell Therapy With Special Focus on Pediatric Malignancies” (Frontiers in Oncology, 2019).

Experiments:
HOS-143b = assay: Kinetics of specific lysis at varying E/T ratios, 10 nM EC17; type: cell-based, human; settings: 10 nM EC17, E2-CAR-T cells, E/T 1:27 to 3:1, 16 and 48 h
Experimental: For an EC17 dose response study, FR+ cancer cell lines (KB, MDA-MB-231, HOS-FRα, THP1-FRβ, OV90) were co-cultured with EGFRt-sorted E2-CAR-T cells at an effector-to-target (E/T) ratio of 1:1 in the presence of EC17 ranging from 0.1 pM to 100 μM in 10-fold increments. After 24 h of co-culture, supernatants were harvested to determine target cell killing by Promega's CytoTox 96® LDH assay kit and expressed as specific lysis (%) normalized to basal levels in the absence of EC17. To study the kinetics of T cell activation and FR correlation in vitro, co-cultures were carried out in FR+/- cell lines at varying E/T ratios (1:27, 1:9, 1:3, 1:1, 3:1) in the continuous presence of 10 nM EC17. The kinetics of target cell killing (i.e., % specific lysis) were quantified after 16 and 48 h of co-culture and normalized to basal levels in the absence of EC17 at defined E/T ratios. Meanwhile, a portion of the supernatants was taken after 44 h of co-culture for measurement of IFNγ, IL-2, and TNFα. The LEGENDplex™ human Th1 cytokine panel (BioLegend, San Diego, CA) was used to determine CAR-T cell derived cytokines.

MDA-MB-231 tumor = assay: Kinetics of CAR-T cell expansion and tumor uptake in vivo; design: species or system NSG mice; settings: ~4.8 million EGFRt-sorted E2-CAR-T cells day 0, EC17 500 nmol/kg weekly i.v.
Experimental: All animal care and use were performed according to NIH guidelines and in compliance with protocols approved by the Purdue University Animal Use and Care Committee. Female 4 to 5-weeks-old NOD/SCID gamma (NSG™) mice (stock number: 005557) were purchased from The Jackson Laboratory (Bar Harbor, ME). Unless specifically indicated, all animals were maintained on a FA-deficient diet (TestDiet, St. Louis, MO) upon arrival and throughout the study. To establish subcutaneous xenografts, MDA-MB-231 and HOS-FRα were implanted in the right flank region at 2.5 × 10^6 and 1 × 10^6 cells per animal, respectively. For intravenous xenografts, THP1-FRβ cells were inoculated at 5 × 10^6 cells per animal. Subcutaneous tumors were measured 2–3 times per week with a caliper and calculated using the ellipsoidal formula (length x width^2)/2. […] All animal doses (CAR-T cells, EC17, sodium fluorescein) were given intravenously.
To study CAR-T cell expansion in vivo, we started with 15 MDA-MB-231 tumor bearing mice having ~4.8 million EGFRt-sorted E2-CAR-T cells (1:1 CD4/CD8) injected on day 0. […] For each collection, fresh blood and tumor samples (if available) were analyzed for the presence of human CD3ε+ EGFRt+ CAR-T cells by flow cytometry. Moreover, we analyzed phenotypic changes of E2-CAR-T cells in the circulation (TSCM, TCM, TEM, and TEFF) and the activation status of tumor-infiltrating CAR-T cells (i.e., CD137/4-1BB, PD1).
For CAR-T cell analysis in the circulation, plasma was removed from a predetermined volume of whole blood collected into tubes containing ethylenediaminetetraacetic acid anticoagulant. […] A minimum of 20,000 propidium iodide negative live cell events were collected on the Gallios flow cytometer and analyzed with the Kaluza software, version 2.1 (Beckman Coulter, Brea, CA). CAR-positive T cells were identified in mouse blood as human CD3ε+ EGFRt+ events and absolute numbers per volume of blood were calculated using equal numbers of CountBright™ beads (Invitrogen, Carlsbad, CA) added to each sample. […]

SMILES: Nc1nc2ncc(CNc3ccc(C(=O)NC(CCC(=O)NCCNC(=S)Nc4ccc(-c5c6ccc(=O)cc-6oc6cc(O)ccc56)c(C(=O)O)c4)C(=O)O)cc3)nc2c(=O)[nH]1 (stereo not shown) [EC17, FA-(γ)-ethylenediamine-FITC]
- specific lysis of FR-negative cells (HOS-143b): essentially unharmed
- time of peak of circulating CAR-T cells (MDA-MB-231 tumor): ~15 days
- tumor response (MDA-MB-231 tumor; smaller tumors): started to respond after the second EC17 dose
- persistence of circulating CAR-T cells (MDA-MB-231 tumor; last analysis by flow cytometry): up to 30 days
